Reference: patent US8158560B2, “Insecticidal arylpyrroline compounds” (Bayer CropScience AG, priority 2009, dated 2012)

Assays:
Type in all cases: in vivo
Aulacophora femoralis = assay: Biological Test Example 3: test against cucurbit leaf beetle (Aulacophora femoralis), cucumber leaf dip; conditions: foliar, 168 h, active compound concentration 100 ppm, second instar larvae, after 7 days, read-out: insecticidal activity
Procedure: (§1) Unless not mentioned otherwise, the test solutions were prepared as follows:
(§2) Containing as solvent: Dimethylformamide, 3 parts by weight; and as emulsifier: Polyoxyethylene alkyl phenyl ether, 1 part by weight
(§3) To prepare the test solution, 1 part by weight of an active compound is mixed with the above-mentioned amount of solvent containing the above-mentioned amount of emulsifier, and the mixture is diluted with water to the desired concentration.
Test Against Cucurbit Leaf Beetle (Aulacophora femoralis)
Leaves of cucumber were immersed in the test solution at the appropriate concentration, and the leaves were dried in air. The leaves were then put in a plastic cup containing sterilized black soil and five Aulacophora femoralis at second instar larvae were released in the cup. The cups were placed in a temperature-controlled chamber at 25° C. After 7 days, the number of dead larvae was counted, and the insecticidal activity was calculated. An insecticidal activity of 100% means that all larvae were killed, whereas an insecticidal activity of 0% means that no larva was killed.

Tetranychus urticae = assay: Biological Test Example 2: test against two-spotted spider mite (Tetranychus urticae), spray on kidney bean; conditions: 168 h, active compound concentration 100 ppm, adult mites, after 7 days, read-out: acaricidal activity
Procedure: as §1, §2, §3
Test Against Two-Spotted Spider Mite (Tetranvchus urticae)
50 to 100 adult mites of Tetranychus urticae were inoculated to leaves of kidney bean at two-leaf stage planted in a pot of 6 cm in diameter. After one day, test solution at the appropriate concentration was sprayed thereon in a sufficient amount using a spray gun. After the spraying, the plant pot was placed inside a greenhouse, and after 7 days, the acaricidal activity was calculated. An acaricidal activity of 100% means that all mites were killed, whereas an acaricidal activity of 0% means that no mite was killed.

Spodoptera litura = assay: Biological Test Example 1: test against tobacco cutworm (Spodoptera litura) larvae, sweet potato leaf dip; conditions: foliar, 168 h, active compound concentration 100 ppm, third instar larvae, after 7 days, read-out: insecticidal activity
Procedure: as §1, §2, §3
Test Against Tobacco Cutworm (Spodoptera litura) Larvae
Leaves of sweet potato were immersed in the test solution at the appropriate concentration, and the leaves were dried in air. The leaves were then placed in a petri dish having a diameter of 9 cm, and ten Spodoptera litura at third instar larvae were released therein. The petri dishes were placed in a temperature-controlled chamber at 25° C.
After 2 days and 4 days more sweet potato leaves were added. After 7 days, the number of dead larvae was counted and the insecticidal activity was calculated. An insecticidal activity of 100% means that all larvae were killed, whereas an insecticidal activity of 0% means that no larva was killed. In the current test, the results of two petri dishes for each treatment were averaged.

[1] = system: organic phosphorus agent- and carbamate agent-resistant Myzus persicae; assay: Biological Test Example 4: test against organic phosphorus agent- and carbamate agent-resistant green peach aphid (Myzus persicae), spray on eggplant; conditions: active compound concentration 100 ppm; after 7 days
Procedure: as §1, §2, §3
Test Against Organic Phosphorus Agent- and Carbamate Agent Resistant Green Peach Aphid (Myzus persicae)
50 to 100 head of organic phosphorous agent- and carbamate agent-resistant Myzus persicae were inoculated to leaves of eggplant at two-leaf stage, planted in a pot of 6 cm in diameter. After one day, test solution at the appropriate concentration was sprayed thereon in a sufficient amount using a spray gun. After the spraying, the plant pot was placed inside a greenhouse, and after 7 days, the insecticidal rate was calculated.
An insecticidal activity of 100% means that all aphids were killed, whereas an insecticidal activity of 0% means that no aphid was killed.

[2] = system: Spodoptera litura L2 stage; assay: Spodoptera litura root soaking test (PRODLI); conditions: 20 ppm, 4 dat
Procedure: Spodoptera litura—Root Soaking Test (PRODLI)
Insect: Spodoptera litura L2 stage;
Material: Culture media bottles for hydroponics: Plastic (A-PET) cups for test, square type;
Plant: Broccoli 5 leaf stage (ca. 12 cm high), soil around the roots was washed off just before the test;
Solvent pre-mixture “Sorpol SD” for root soaking test;
Sorpol SD: Sorpol BDB:Dimethylformamide=3:3:140
Procedure: Test solutions are prepared in the bottles at the appropriate concentration. The test plant root is dipped into the test solution in the bottle and kept in a test room. After 3 days, ⅓ part of the leaves of the plants is cut and put into the A-PET cup.
Into each test cup five larvae L2 are released, the cup is covered with a lid and stored at 25° C. and at a relative humidity of 50-60% and under 16L8D lighting conditions.
After the specified period of time the mortality in % is determined and the rate of death is calculated.

SMILES | pest or weed control at 100 ppm (Aulacophora femoralis) | pest or weed control at 100 ppm (Tetranychus urticae) | pest or weed control at 100 ppm (Spodoptera litura) | insecticidal activity [1] | Efficacy/day(s) of treatment [2]
Cc1cc(C2=NCC(c3cc(C(F)(F)F)cc(C(F)(F)F)c3)(C(F)(F)F)C2)ccc1C(=O)NC1C[S+]([O-])C1 (centres unmarked) [Compound 1-20, 4-{3-[3,5-Bis(trifluoromethyl)phenyl]-3-(trifluoromethyl)-3,4-dihydro-2H-pyrrol-5-yl}-2-methyl-N-(1-oxidothietan-3-yl)benzamide] | 100% | 100% | 100% |  | 
O=C(NC1CSC1)c1ccc(C2=NCC(c3cc(C(F)(F)F)cc(C(F)(F)F)c3)(C(F)(F)F)C2)cc1Br (centres unmarked) [Compound 1-104, 4-{3-[3,5-Bis(trifluoromethyl)phenyl]-3-(trifluoromethyl)-3,4-dihydro-2H-pyrrol-5-yl}-2-bromo-N-(thietan-3-yl) benzamide] | 100% |  | 100% |  | 
O=C(NC1CSC1)c1ccc(C2=NCC(c3cc(Cl)c(Cl)c(Cl)c3)(C(F)(F)F)C2)cc1C(F)(F)F (centres unmarked) [Compound 1-7, N-(thietan-3-yl)-4-[3-(3,4,5-trichlorophenyl)-3-(trifluoromethyl)-3,4-dihydro-2H-pyrrol-5-yl]-2-(trifluoromethyl)benzamide] | 100% | 100% | 100% | 100% | 
Cc1cc(C2=NCC(c3cc(Cl)cc(Cl)c3)(C(F)(F)F)C2)ccc1C(=O)NC1CS(=O)(=O)C1 (centres unmarked) [Compound T-1] |  |  |  |  | 100%/4 dat
Cc1cc(C2=NCC(c3cc(Cl)c(Cl)c(Cl)c3)(C(F)(F)F)C2)ccc1C(=O)NC1C[S+]([O-])C1 (centres unmarked) [Compound 1-11, 2-Methyl-N-(1-oxidothietan-3-yl)-4-[3-(3,4,5-trichlorophenyl)-3-(trifluoromethyl)-3,4-dihydro-2H-pyrrol-5-yl]benzamide] | 100% | 100% | 100% |  | 
O=C(NC1CSC1)c1ccc(C2=NCC(c3cc(C(F)(F)F)cc(C(F)(F)F)c3)(C(F)(F)F)C2)cc1C(F)(F)F (centres unmarked) [Compound 1-16, 4-{3-[3,5-Bis(trifluoromethyl)phenyl}-3-(trifluoromethyl)-3,4-dihydro-2H-pyrrol-5-yl]-N-(thietan-3-yl)-2-(trifluoromethyl)benzamide] | 100% | 100% | 100% | 100% | 
Cc1cc(C2=NCC(c3cc(Cl)c(Cl)c(Cl)c3)(C(F)(F)F)C2)ccc1C(=O)NC1CS(=O)(=O)C1 (centres unmarked) [Compound 1-12, N-(1,1-Dioxidothietan-3-yl)-2-methyl-4-[3-(3,4,5-trichlorophenyl)-3-(trifluoromethyl)-3,4-dihydro-2H-pyrrol-5-yl]benzamide] | 100% | 100% | 100% | 100% | 
Cc1cc(C2=NOC(c3cc(Cl)cc(Cl)c3)(C(F)(F)F)C2)ccc1C(=O)NC1CS(=O)(=O)C1 (centres unmarked) [ExNo A10 of WO 2009/080250] |  |  |  |  | 0%/4 dat
Cc1cc(C2=NCC(c3cc(C(F)(F)F)cc(C(F)(F)F)c3)(C(F)(F)F)C2)ccc1C(=O)NC1CSC1 (centres unmarked) [Compound 1-19, 4-{3-[3,5-Bis(trifluoromethyl)phenyl]-3-(trifluoromethyl)-3,4-dihydro-2H-pyrrol-5-yl}-2-methyl-N-(thietan-3-yl)benzamide] | 100% | 100% | 100% | 100% | 
O=C(NC1CS(=O)(=O)C1)c1ccc(C2=NCC(c3cc(Cl)c(Cl)c(Cl)c3)(C(F)(F)F)C2)cc1C(F)(F)F (centres unmarked) [Compound 1-9, N-(1,1-Dioxidothietan-3-yl)-4-[3-(3,4,5-trichlorophenyl)-3-(trifluoromethyl)-3,4-dihydro-2H-pyrrol-5-yl]-2-(trifluoromethyl)benzamide] | 100% | 100% | 100% | 100% | 
Cc1cc(C2=NCC(c3cc(Cl)c(Cl)c(Cl)c3)(C(F)(F)F)C2)ccc1C(=O)NC1CSC1 (centres unmarked) [Compound 1-10, 2-methyl-N-(thietan-3-yl)-4-[3-(3,4,5-trichlorophenyl)-3-(trifluoromethyl)-3,4-dihydro-2H-pyrrol-5-yl]benzamide] | 100% | 100% | 100% | 100% | 
O=C(CNC(=O)c1ccc(C2=NCC(c3cc(C(F)(F)F)cc(C(F)(F)F)c3)(C(F)(F)F)C2)cc1C(F)(F)F)NC1CSC1 (centres unmarked) [Compound 3-19, 4-{3-[3,5-Bis(trifluoromethyl)phenyl]-3-(trifluoromethyl)-3,4-dihydro-2H-pyrrol-5-yl}-N-[2-oxo-2-(thietan-3-ylamino)ethyl]-2-(trifluoromethyl)benzamide] | 100% |  | 100% |  | 
O=C(NC1CSC1)c1ccc(C2=NCC(c3cc(Cl)c(Cl)c(Cl)c3)(C(F)(F)F)C2)cc1Br (centres unmarked) [Compound 1-4, 2-Bromo-N-(thietan-3-yl)-4-[3-(3,4,5-trichlorophenyl)-3-(trifluoromethyl)-3,4-dihydro-2H-pyrrol-5-yl]benzamide] | 100% |  | 100% |  | 
O=C(NC1C[S+]([O-])C1)c1ccc(C2=NCC(c3cc(Cl)c(Cl)c(Cl)c3)(C(F)(F)F)C2)cc1C(F)(F)F (centres unmarked) [Compound 1-8, N-(1-Oxidothietan-3-yl)-4-[3-(3,4,5-trichlorophenyl)-3-(trifluoromethyl)-3,4-dihydro-2H-pyrrol-5-yl]-2-(trifluoromethyl)benzamide] | 100% | 100% | 100% |  | 
O=C(CNC(=O)c1ccc(C2=NCC(c3cc(Cl)c(Cl)c(Cl)c3)(C(F)(F)F)C2)cc1C(F)(F)F)NC1CSC1 (centres unmarked) [Compound 3-7] | 100% | 100% | 100% |  | 
